“And” between values parts separate entries of the source, which are not always exact repeats. Equal entries are not always repeated.
Biological target: Glutamate receptor ionotropic, NMDA 1 (Rattus norvegicus, UniProt P35439)

| Compound | Ki |
| --- | --- |
| N[C@H](CC(=O)O)C(=O)O | 800 nM and 900 nM |
| O=C(O)c1cccc(C(=O)O)n1 [Dipicolinate] | > 10000 nM |
| O=C(O)c1cccnc1C(=O)O [pyridine-2,3-dicarboxylic acid] | > 10000 nM |
| NC(CCCCCP(=O)(O)O)C(=O)O (stereo not drawn) [DL-AP7] | 900 nM and 1100 nM |
| N[C@@H](CC(=O)O)C(=O)O [L-Aspartic acid, 2] | 1400 nM and 1600 nM |
| N[C@@H](Cn1oc(=O)[nH]c1=O)C(=O)O [2-amino-3-(3,5-dioxo[1,2,4]oxadiazolidin-2-yl)propionic acid] | > 10000 nM |
| O=C(O)[C@H]1CN(CCCP(=O)(O)O)CCN1 [CPP] | 220 nM and 150 nM |
| N[C@H](CCCP(=O)(O)O)C(=O)O [CB3371309] | 350 nM and 400 nM |
| O=C(O)[C@@H]1C[C@H](CP(=O)(O)O)CCN1 [Selfotel] | 140 nM |
| CN[C@H](CC(=O)O)C(=O)O [NMDA] | 4100 nM and 5600 nM |
| CCOC(=O)CC[C@H](N)C(=O)OCC [glutamic acid diethyl ester] | > 10000 nM |
